Source: patent US4272437A, “Antibacterial agents, and 4-thio azetidinone intermediates” (priority 1979, dated 1981)
In brackets after ≈: the same amount, converted by molar mass. Like-named read-outs stand apart in the source and are kept apart here.

How the values were obtained:
Str. pneumoniae A-9585 = assay: MIC, tube dilution, Streptococcus pneumoniae A9585; format: cell-based; conditions: overnight 37° C., Nutrient Broth; for MIC: Streptococcus pneumoniae, A9585, Str. pneumoniae A9585, read-out: Minimum Inhibitory Concentration (M.I.C.)
Source text: (§1) Representative compounds of the present invention were subjected to in vitro antibiotic screening against a variety of microorganisms.

Ps. aeruginosa A-21213 = assay: MIC, tube dilution, Pseudomonas aeruginosa A21213; format: cell-based; conditions: overnight 37° C.; for MIC: read-out: Minimum Inhibitory Concentration (M.I.C.)
Source text: as §1

[1] = test system: Staph. aureus (Meth-Res) A-15097; assay: MIC, tube dilution, Staphylococcus aureus A15097 (Meth-Res); format: cell-based; conditions: overnight 37° C.; for MIC: Staphylococcus aureus
Source text: as §1

[2] = test system: Staph. aureus A-9537 and 50% serum; assay: MIC, tube dilution, Staph. aureus A9537 + 50% serum; format: cell-based, Staphylococcus aureus; conditions: overnight 37° C.; for MIC: Staphylococcus aureus, read-out: Minimum Inhibitory Concentration (M.I.C.)
Source text: as §1

[3] = test system: Staph. aureus (Pen-Res) A-9606; assay: MIC, tube dilution, Staphylococcus aureus A9606 (Pen-Res); format: cell-based; conditions: Staph. aureus A9606 (Pen-Res), overnight 37° C.; for MIC: Staphylococcus aureus, read-out: Minimum Inhibitory Concentration (M.I.C.)
Source text: as §1

E. coli A-15119 = assay: MIC, tube dilution, Escherichia coli A15119; format: cell-based; conditions: overnight 37° C.; for MIC: Escherichia coli, A15119, E. coli A15119, read-out: Minimum Inhibitory Concentration (M.I.C.)
Source text: as §1

Ps. aeruginosa A-9843A = assay: MIC, tube dilution, Pseudomonas aeruginosa A9843A; format: cell-based; conditions: overnight 37° C.; for MIC: Pseudomonas aeruginosa, A9843A, read-out: Minimum Inhibitory Concentration (M.I.C.), Pseudomonas aeruginosa A9843A
Source text: as §1

Ent. cloacae A-9659 = assay: MIC, tube dilution, Enterobacter cloacae A9659; format: cell-based; conditions: overnight 37° C.; for MIC: Enterobacter cloacae, A9659, Enterobacter cloacae A9659, read-out: Minimum Inhibitory Concentration (M.I.C.)
Source text: as §1

Ser. marcescens A-20019 = assay: MIC, tube dilution, Serratia marcescens A20019; format: cell-based; conditions: overnight 37° C.; for MIC: Serratia marcescens, A20019, Serratia marcescens A20019, read-out: Minimum Inhibitory Concentration (M.I.C.)
Source text: as §1

[4] = test system: Klebsiella species A20468; assay: MIC, tube dilution, Klebsiella species A20468; format: cell-based; conditions: Klebsiella species (K. pneumoniae) A20468, overnight 37° C.; for MIC: read-out: Minimum Inhibitory Concentration (M.I.C.)
Source text: as §1

K. pneumoniae A-15130 = assay: MIC, tube dilution, Klebsiella pneumoniae A15130; format: cell-based; conditions: overnight 37° C.; for MIC: Klebsiella pneumoniae, A15130, K. pneumoniae A15130, read-out: Minimum Inhibitory Concentration (M.I.C.)
Source text: as §1

Str. pyogenes A-9604 = assay: MIC, tube dilution, Streptococcus pyogenes A9604; format: cell-based; conditions: overnight 37° C., Nutrient Broth; for MIC: Streptococcus pyogenes, A9604, Str. pyogenes A9604, read-out: Minimum Inhibitory Concentration (M.I.C.)
Source text: as §1

E. coli A-20341-1 = assay: MIC, tube dilution, Escherichia coli A20341-1; format: cell-based
Source text: as §1

Staph. aureus A-9537 = assay: MIC, tube dilution, Staphylococcus aureus A9537; format: cell-based; conditions: overnight 37° C., Nutrient Broth; for MIC: Staphylococcus aureus, A9537, Staph. aureus A9537, read-out: Minimum Inhibitory Concentration (M.I.C.)
Source text: as §1

Pr. morganii A-15153 = assay: MIC, tube dilution, Proteus morganii A15153; format: cell-based; conditions: overnight 37° C.; for MIC: Morganella morganii, A15153, Proteus morganii A15153, read-out: Minimum Inhibitory Concentration (M.I.C.)
Source text: as §1

Ent. cloacae A-9656 = assay: MIC, tube dilution, Enterobacter cloacae A9656; format: cell-based; conditions: overnight 37° C.; for MIC: Enterobacter cloacae, A9656, Enterobacter cloacae A9656, read-out: Minimum Inhibitory Concentration (M.I.C.)
Source text: as §1

Proteus rettgeri A21203 = assay: MIC, tube dilution, Proteus rettgeri A21203; format: cell-based; conditions: overnight 37° C.; for MIC: Providencia rettgeri, A21203, Proteus rettgeri A21203, read-out: Minimum Inhibitory Concentration (M.I.C.)
Source text: as §1

Pr. mirabilis A-9900 = assay: MIC, tube dilution, Proteus mirabilis A9900; format: cell-based; conditions: overnight 37° C.; for MIC: Proteus mirabilis, A9900, Proteus mirabilis A9900, read-out: Minimum Inhibitory Concentration (M.I.C.)
Source text: as §1

Str. faecalis A-20688 = assay: MIC, tube dilution, Streptococcus faecalis A20688; format: cell-based; conditions: overnight 37° C.; for MIC: Enterococcus faecalis, A20688, Str. faecalis A20688, read-out: Minimum Inhibitory Concentration (M.I.C.)
Source text: as §1

Proteus vulgaris A21559 = assay: MIC, tube dilution, Proteus vulgaris A21559; format: cell-based; conditions: overnight 37° C.; for MIC: Proteus vulgaris, A21559, Proteus vulgaris A21559, read-out: Minimum Inhibitory Concentration (M.I.C.)
Source text: as §1

Pr. vulgaris A-9716 = assay: MIC, tube dilution, Proteus vulgaris / Proteus mirabilis A9716; format: cell-based, Proteus vulgaris (name changed to Proteus mirabilis); conditions: Proteus vulgaris, A9716, Proteus vulgaris / Proteus mirabilis A9716; overnight 37° C.; read-out: Minimum Inhibitory Concentration (M.I.C.)
Source text: as §1

[5] = Pseudomonas aeruginosa, A21213, Pseudomonas aeruginosa A21213
[6] = Staph. aureus A15097 (Meth-Res), read-out: Minimum Inhibitory Concentration (M.I.C.)
[7] = Escherichia coli, A203411, E. coli A20341-1; overnight 37° C.; read-out: Minimum Inhibitory Concentration (M.I.C.)

| Compound | MIC (Str. pneumoniae A-9585) [µg/mL] | MIC (Ps. aeruginosa A-21213; [5]) [µg/mL] | MIC [1, 6] [µg/mL] | MIC [2] [µg/mL] | MIC [3] [µg/mL] | MIC (E. coli A-15119) [µg/mL] | MIC (Ps. aeruginosa A-9843A) [µg/mL] | MIC (Ent. cloacae A-9659) [µg/mL] | MIC (Ser. marcescens A-20019) [µg/mL] | MIC [4] [µg/mL] | MIC (K. pneumoniae A-15130) [µg/mL] | MIC (Str. pyogenes A-9604) [µg/mL] | MIC (E. coli A-20341-1; [7]) [µg/mL] | MIC (Staph. aureus A-9537) [µg/mL] | MIC (Pr. morganii A-15153) [µg/mL] | MIC (Ent. cloacae A-9656) [µg/mL] | MIC (Proteus rettgeri A21203) [µg/mL] | MIC (Pr. mirabilis A-9900) [µg/mL] | MIC (Str. faecalis A-20688) [µg/mL] | MIC (Proteus vulgaris A21559) [µg/mL] | also measured |
| --- | --- | --- | --- | --- | --- | --- | --- | --- | --- | --- | --- | --- | --- | --- | --- | --- | --- | --- | --- | --- | --- |
| NCCCCCC1=C(C(=O)O)N2C(=O)C[C@H]2S1 [Example 102, (5R) 2-(5'-aminopentyl)-penem-3-carboxylic acid] | – | – | – | – | – | – | – | – | – | – | – | – | – | – | – | – | – | – | – | – | Minimum Inhibitory Concentration (M.I.C.) (Str. pneumoniae A-9585; Str. pneumoniae A9585): .008 µg/mL; Minimum Inhibitory Concentration (M.I.C.) (Ps. aeruginosa A-21213; Pseudomonas aeruginosa A21213): > 63 µg/mL; Minimum Inhibitory Concentration (M.I.C.) ([1]; Staph. aureus A15097 (Meth-Res)): 8 µg/mL; Minimum Inhibitory Concentration (M.I.C.) [2]: .25 µg/mL; Minimum Inhibitory Concentration (M.I.C.) [3]: 2 µg/mL; Minimum Inhibitory Concentration (M.I.C.) (E. coli A-15119; E. coli A15119): 1 µg/mL; Minimum Inhibitory Concentration (M.I.C.) (Ps. aeruginosa A-9843A; Pseudomonas aeruginosa A9843A): 8 µg/mL; Minimum Inhibitory Concentration (M.I.C.) (Ent. cloacae A-9659; Enterobacter cloacae A9659): 4 µg/mL; Minimum Inhibitory Concentration (M.I.C.) (Ser. marcescens A-20019; Serratia marcescens A20019): 2 µg/mL; Minimum Inhibitory Concentration (M.I.C.) [4]: > 63 µg/mL; Minimum Inhibitory Concentration (M.I.C.) (K. pneumoniae A-15130; K. pneumoniae A15130): 2 µg/mL; Minimum Inhibitory Concentration (M.I.C.) (Str. pyogenes A-9604; Str. pyogenes A9604): .016 µg/mL; Minimum Inhibitory Concentration (M.I.C.) (E. coli A-20341-1; E. coli A20341-1; overnight 37° C.): 16 µg/mL; Minimum Inhibitory Concentration (M.I.C.) (Staph. aureus A-9537; Staph. aureus A9537): .03 µg/mL; Minimum Inhibitory Concentration (M.I.C.) (Pr. morganii A-15153; Proteus morganii A15153): 2 µg/mL; Minimum Inhibitory Concentration (M.I.C.) (Ent. cloacae A-9656; Enterobacter cloacae A9656): 2 µg/mL; Minimum Inhibitory Concentration (M.I.C.) (Proteus rettgeri A21203; Proteus rettgeri A21203): 2 µg/mL; Minimum Inhibitory Concentration (M.I.C.) (Pr. mirabilis A-9900; Proteus mirabilis A9900): 2 µg/mL; Minimum Inhibitory Concentration (M.I.C.) (Str. faecalis A-20688; Str. faecalis A20688): 4 µg/mL; Minimum Inhibitory Concentration (M.I.C.) (Proteus vulgaris A21559; Proteus vulgaris A21559): 16 µg/mL |
| N=C(Cc1ccccc1)NCC1=C(C(=O)O)N2C(=O)CC2S1 (stereo not shown) [Example 107] | 0.5 (≈ 1.58 µM) | 63 (≈ 199 µM) | > 63 | 16 | 32 (≈ 101 µM) | 63 (≈ 199 µM) | 63 (≈ 199 µM) | > 63 | 63 (≈ 199 µM) | > 63 | > 63 | 0.5 (≈ 1.58 µM) | > 63 | 0.5 (≈ 1.58 µM) | 63 (≈ 199 µM) | 63 (≈ 199 µM) | 63 (≈ 199 µM) | 63 (≈ 199 µM) | > 63 | 63 (≈ 199 µM) | – |
| N=C(NCC1=C(C(=O)O)N2C(=O)CC2S1)c1ccccc1 (stereo not shown) [Example 108, 2-Phenylimidoylaminomethylpenem-3-carboxylic Acid] | 0.25 (≈ 0.824 µM) | 125 (≈ 412 µM) | > 125 | 16 | 16 (≈ 52.7 µM) | 63 (≈ 208 µM) | 63 (≈ 208 µM) | 125 (≈ 412 µM) | 125 (≈ 412 µM) | > 125 | 125 (≈ 412 µM) | 0.25 (≈ 0.824 µM) | > 125 | 0.25 (≈ 0.824 µM) | 63 (≈ 208 µM) | 125 (≈ 412 µM) | 63 (≈ 208 µM) | 63 (≈ 208 µM) | 125 (≈ 412 µM) | 125 (≈ 412 µM) | – |
| CC1(CC2=C(C(=O)O)N3C(=O)CC3S2)OCCO1 (stereo not shown) [Preparation 22, 2-(Acetonyl-ethylene-ketal)penem-3-carboxylic Acid] | 0.13 (≈ 0.479 µM) | – | – | 32 | 32 (≈ 118 µM) | – | 125 (≈ 461 µM) | 63 (≈ 232 µM) | 63 (≈ 232 µM) | 125 (≈ 461 µM) | 32 (≈ 118 µM) | 0.25 (≈ 0.922 µM) | – | 0.5 (≈ 1.84 µM) | 8 (≈ 29.5 µM) | 63 (≈ 232 µM) | 16 (≈ 59 µM) | 16 (≈ 59 µM) | 125 (≈ 461 µM) | – | MIC (Ps. aeruginosa A-21213; Pseudomonas aeruginosa A21213): 125 µg/mL (≈ 461 µM); MIC ([1]; read-out: Minimum Inhibitory Concentration (M.I.C.), Staph. aureus A15097 (Meth-Res)): > 125 µg/mL; MIC (E. coli A-20341-1; Escherichia coli, A203411; E. coli A20341-1; overnight 37° C.; read-out: Minimum Inhibitory Concentration (M.I.C.)): 125 µg/mL (≈ 461 µM); MIC (Pr. vulgaris A-9716): 4 µg/mL (≈ 14.7 µM) |
